Measured values taken from patent US8563545B2, “Compound useful for the treatment of degenerative and inflammatory diseases” (Galapagos NV, priority 2009, dated 2013).
Where “and” joins values, the source holds several entries; their conditions need not be identical. Identical values can stand only once.

Assays:
JAK1 = JAK1 (Homo sapiens (Human), UniProt P23458); experiment: JAK1 inhibition assay; format: biochemical
Description: (§1) Plates were washed 6 times with 300 μL per well of a 75 mM phosphoric acid solution and the bottom of the plates was sealed. 40 μL/well of Microscint-20 was added, the top of the plates was sealed and readout was performed using the Topcount (Perkin Elmer). Kinase activity was calculated by subtracting counts per minute (cpm) obtained in the presence of a positive control inhibitor (10 μM staurosporine) from cpm obtained in the presence of vehicle. The ability of a test compound to inhibit this activity was determined as:
(§2) Percentage inhibition=((cpm determined for sample with test compound present−cpm determined for sample with positive control inhibitor)divided by(cpm determined in the presence of vehicle−cpm determined for sample with positive control inhibitor))*100.
Dose dilution series were prepared for the compounds enabling the testing of dose-response effects in the JAK1 assay and the calculation of the IC50 for each compound.

JAK2 = JAK2 (Homo sapiens (Human), UniProt O60674); experiment: JAK2 inhibition assay; format: biochemical
Description: as §1, with “After 90 min at 30° C., reactions were stopped by adding of 25 μL/well of 150 mM phosphoric acid. […] Plates” for “Plates”
as §2
Dose dilution series were prepared for the compounds enabling the testing of dose-response effects in the JAK2 assay and the calculation of the IC50 for each compound.

JAK2, sequence (O60674 808-1132): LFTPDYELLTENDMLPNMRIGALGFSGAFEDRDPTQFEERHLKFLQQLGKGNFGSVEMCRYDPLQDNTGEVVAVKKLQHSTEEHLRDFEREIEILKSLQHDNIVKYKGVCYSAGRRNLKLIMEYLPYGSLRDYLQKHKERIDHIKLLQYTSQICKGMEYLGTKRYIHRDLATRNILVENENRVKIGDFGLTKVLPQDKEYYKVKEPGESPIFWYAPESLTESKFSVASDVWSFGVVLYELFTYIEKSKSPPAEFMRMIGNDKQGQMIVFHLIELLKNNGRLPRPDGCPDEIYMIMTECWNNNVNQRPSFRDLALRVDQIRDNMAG
JAK1, sequence (P23458 850-1154): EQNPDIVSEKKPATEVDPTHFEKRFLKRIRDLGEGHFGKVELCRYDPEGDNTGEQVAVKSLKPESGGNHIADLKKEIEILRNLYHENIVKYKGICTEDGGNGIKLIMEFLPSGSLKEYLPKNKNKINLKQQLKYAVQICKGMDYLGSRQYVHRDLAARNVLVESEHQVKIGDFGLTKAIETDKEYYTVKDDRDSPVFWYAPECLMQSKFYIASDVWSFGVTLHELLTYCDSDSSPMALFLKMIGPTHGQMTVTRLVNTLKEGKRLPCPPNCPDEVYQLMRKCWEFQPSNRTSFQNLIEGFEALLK

O=C(Nc1nc2cccc(-c3cccc(CN4CCOCC4)c3)n2n1)C1CC1 [Compound 3, N-(5-(3-(morpholinomethyl)phenyl)-[1,2,4]triazolo[1,5-a]pyridin-2-yl)cyclopropanecarboxamide]
IC50 (JAK1): 291 nM

O=C(Nc1nc2cccc(-c3ccc(N4CCOCC4)nc3)n2n1)C1CC1 [Compound 4, N-(5-(6-morpholinopyridin-3-yl)-[1,2,4]triazolo[1,5-a]pyridin-2-yl)cyclopropanecarboxamide]
IC50 (JAK1): 1030 nM

O=C(Nc1nc2cccc(-c3ccc(N4CCOCC4)cc3)n2n1)C1CC1 [Compound 5, N-(5-(4-morpholinophenyl)-[1,2,4]triazolo[1,5-a]pyridin-2-yl)cyclopropanecarboxamide]
IC50 (JAK2): 1.76 µM
IC50 (JAK1): 1450 nM

CN1CCN(Cc2ccc(-c3cccc4nc(NC(=O)C5CC5)nn34)cc2)CC1 [Compound 6, N-(5-(4-((4-methylpiperazin-1-yl)methyl)phenyl)-[1,2,4]triazolo [1,5-a]pyridin-2-yl) cyclopropanecarboxamide]
IC50 (JAK2): 5.07 µM
IC50 (JAK1): 3450 nM

O=C(Nc1nc2cccc(-c3ccc(CN4CCCCC4)cc3)n2n1)C1CC1 [Compound 7, N-(5-(4-(piperidin-1-ylmethyl)phenyl)-[1,2,4]triazolo[1,5-a]pyridin-2-yl)cyclopropanecarboxamide]
IC50 (JAK2): 6.45 µM
IC50 (JAK1): 504 nM

NC(=O)C1CCN(Cc2ccc(-c3cccc4nc(NC(=O)C5CC5)nn34)cc2)CC1 [Compound 8]
IC50 (JAK2): 7.73 µM and 1.35 µM
IC50 (JAK1): 435 nM

CC(=O)N1CCN(Cc2ccc(-c3cccc4nc(NC(=O)C5CC5)nn34)cc2)CC1 [Compound 9, N-(5-(4-((4-acetoylpiperazin-1-yl)methyl)phenyl)-[1,2,4]triazolo[1,5-a]pyridin-2-yl)cyclopropanecarboxamide]
IC50 (JAK2): 0.849 µM
IC50 (JAK1): 334 nM
